# Results as given in patent publication WO2007026771A1, “点滴用注射剤” (Ono Pharmaceutical Co Ltd, priority 2005, dated 2007).
# Entries after “also recorded” stand apart in the source; their conditions may differ.
# What was measured:
# [1] = biological target: poly(ADP-ribose) polymerase (PARP) [ポリ(ADP−リボース)ポリメラーゼ] (Homo sapiens, UniProt P09874); settings: cited from earlier work
# [2] = Solubility of compound A in water at various pH values (5℃, 24 h, HPLC); type: physicochemical
# [3] = pH of supernatant of aqueous suspension of compound A; type: physicochemical
# Chain of poly(ADP-ribose) polymerase (PARP) [ポリ(ADP−リボース)ポリメラーゼ] (P09874 whole entry): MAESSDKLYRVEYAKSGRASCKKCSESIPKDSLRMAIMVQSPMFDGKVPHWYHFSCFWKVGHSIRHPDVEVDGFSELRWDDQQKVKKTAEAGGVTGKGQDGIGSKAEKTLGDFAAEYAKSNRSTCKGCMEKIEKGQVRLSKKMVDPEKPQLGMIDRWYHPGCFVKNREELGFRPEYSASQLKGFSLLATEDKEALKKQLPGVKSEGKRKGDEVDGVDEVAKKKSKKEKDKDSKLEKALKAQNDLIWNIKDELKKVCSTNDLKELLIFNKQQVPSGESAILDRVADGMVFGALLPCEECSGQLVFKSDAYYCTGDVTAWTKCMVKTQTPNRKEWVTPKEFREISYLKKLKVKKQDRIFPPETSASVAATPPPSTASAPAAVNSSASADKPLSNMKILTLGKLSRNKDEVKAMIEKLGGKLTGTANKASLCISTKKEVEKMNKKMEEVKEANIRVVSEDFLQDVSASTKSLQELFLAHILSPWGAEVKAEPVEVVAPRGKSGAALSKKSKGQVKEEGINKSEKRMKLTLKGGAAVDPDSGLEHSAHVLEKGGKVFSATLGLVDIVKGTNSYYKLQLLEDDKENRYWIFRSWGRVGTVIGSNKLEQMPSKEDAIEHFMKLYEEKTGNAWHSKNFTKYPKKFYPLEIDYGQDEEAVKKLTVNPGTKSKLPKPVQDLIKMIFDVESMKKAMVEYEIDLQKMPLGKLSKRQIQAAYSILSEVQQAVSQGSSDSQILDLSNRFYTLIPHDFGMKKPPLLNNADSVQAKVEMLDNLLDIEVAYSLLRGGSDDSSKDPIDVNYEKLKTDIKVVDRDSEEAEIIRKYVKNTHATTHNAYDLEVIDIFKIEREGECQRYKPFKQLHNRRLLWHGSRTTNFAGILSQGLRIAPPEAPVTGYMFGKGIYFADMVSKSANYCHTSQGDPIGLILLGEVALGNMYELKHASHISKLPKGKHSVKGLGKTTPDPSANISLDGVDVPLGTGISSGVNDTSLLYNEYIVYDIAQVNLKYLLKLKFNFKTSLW
structure (smiles),measurement,setting,value
"O=C(Cc1n[nH]c(=O)c2c1CCCC2)NCCCCN1CCOCC1 [化合物A, 4−(N−(4−(モルホリン−4−イル)ブチル)カルバモイルメチル)−5,6,7,8−テトラヒドロフタラジン−1(2H)−オン]",toxicity,Toxicity of compound A,非常に低い
same,PARP inhibitory activity,[1],阻害活性を有する; also recorded: PARP阻害活性を有する
same,dissolution in water,[2]; near neutral (e.g. pH 6 or above),速やかに水に溶解せず
same,solubility in water,[2]; pH 8 or above,低い
same,dissolution in water,[2]; pH about 5 or below,速やかに水に溶解する
same,solubility in water,[2]; pH about 7 or below (adjusted),著しく上昇; also recorded: 著しく向上
same,solubility in water,[2]; water,極めて低く
same,pH of supernatant of aqueous suspension,[3],~9.4
